The results in this text go back to patent US20230159889A1, “USE OF N-BUTYLIDENEPHTHALIDE IN DOPAMINERGIC PROGENITOR CELL TRANSPLANTATION” (GWO XI STEM CELL APPLIED TECHNOLOGY CO., LTD., priority 2018, published 2023).

For experiment [1], the system named is dopaminergic progenitor cells. The experiment in a line: Influence of BP on differentiation of dopaminergic progenitor cells into dopaminergic neurons (cell morphology, inverted microscope). It counts as cell-based. Conditions: FIG. 3. On the procedure:
(§1) The dopaminergic progenitor cells provided by [Preparation Example B-2] were cultured in the conditional medium provided by [Preparation Example A-2] at 37° C., 5% CO2 for 24 hours. Then, the cells were divided into six groups (see FIGS. 3 and 4), three groups (see FIGS. 5 and 6) and independently subjected to the following treatments: • (1) Control group: cells were continuously cultured in the conditional medium provided by [Preparation Example A-2] […]
To understand the influence of BP on the differentiation of dopaminergic progenitor cells into dopaminergic neurons, the differentiation process of the cells in control group provided by [Preparation Example C] was continuously taken from a JuLI™Br cell imaging analyzer (purchased from NanoEnTek company) (results are shown in FIG. 2), and the cell morphology in each group provided by [Preparation Example C] was taken from and recorded by an inverted microscope (purchased from Nikon company) when the cells were continuously cultured for six days (results are shown in FIG. 3).

The test system of a further experiment is dopaminergic neurons. Nature of the experiment: Influence of BP on migration of dopaminergic neurons out from neurospheres (Sox-1/TH/DAPI fluorescent staining). The following applies: FIG. 4. It counts as cell-based. On the procedure: as §1
To understand the influence of BP on dopaminergic neurons, when the cells in each group provided by [Preparation Example C] were continuously cultured for ten days, the cells were fixed and then subjected to fluorescent staining with the antibodies including Sox-1 (purchased from Santa Cruz company, product number: SC-17318), TH (tyrosine hydroxylase; purchased from Millipore company, product number: MAB152) and DAPI (diamidino-2-phenylindole; purchased from ThermoFisher Scientific company, product number: D1306), respectively (Sox-1 expresses in dopaminergic progenitor cells, TH expresses in dopaminergic neurons, and DAPI is a nuclear-specific dye). Then, the dopaminergic progenitor cells (green fluorescence), dopaminergic neurons (red fluorescence) and nuclei (blue fluorescence) were observed by an upright fluorescent microscope (purchased from Nikon Company).

Take `CCCC=C1OC(=O)c2ccccc21` [BP, n-butylidenephthalide]: in experiment [1] (BP 5-100 µM, six days), the “influence on the normal neural differentiation of dopaminergic progenitor cells” value is listed as “does not influence”. Further, the “formation of nerve fibers” value in experiment [1] (BP at 5, 10, 20, 50 and 100 µM in conditional medium (Purmorphamine + FGF-8b), cultured six days) is recorded as “can be observed”. Besides, in the experiment on dopaminergic neurons (BP 50 µM ("BP (50)" group), ten days), the “phenomenon of dopaminergic neurons migrating out from the neurospheres, comparison among BP concentrations” value was “most significant”. The “phenomenon of dopaminergic neurons migrating out from the neurospheres, compared to control group” value in the experiment on dopaminergic neurons (BP at 5, 10, 20, 50 and 100 µM in conditional medium, cultured ten days) was “can be observed”.
